Data as given in ChEMBL document CHEMBL3046270, “Bleaching herbicide norflurazon inhibits phytoene desaturase by competition with the cofactors” (J Agric Food Chem, 2001).
The source made the active and inactive calls.

Tests used:
[1] = biological target: Phytoene desaturase (Gentiana lutea) (UniProt Q8W433); experiment: Competitive inhibition of Gentiana lutea desaturase using decyl plastoquinone as cofactor and phytoene as substrate at 0.1 uM after 2 hr by double reciprocal plot analysis
[2] = biological target: 15-cis-phytoene desaturase (Synechococcus elongatus (strain PCC 7942) (Anacystis nidulans R2)) (UniProt P26294); experiment: Competitive inhibition of Synechococcus phytoene desaturase using NADP as cofactor and phytoene as substrate at 0.1 uM after 2 hr by double reciprocal plot analysis
15-cis-phytoene desaturase (Synechococcus elongatus (strain PCC 7942) (Anacystis nidulans R2)), sequence (P26294 whole entry): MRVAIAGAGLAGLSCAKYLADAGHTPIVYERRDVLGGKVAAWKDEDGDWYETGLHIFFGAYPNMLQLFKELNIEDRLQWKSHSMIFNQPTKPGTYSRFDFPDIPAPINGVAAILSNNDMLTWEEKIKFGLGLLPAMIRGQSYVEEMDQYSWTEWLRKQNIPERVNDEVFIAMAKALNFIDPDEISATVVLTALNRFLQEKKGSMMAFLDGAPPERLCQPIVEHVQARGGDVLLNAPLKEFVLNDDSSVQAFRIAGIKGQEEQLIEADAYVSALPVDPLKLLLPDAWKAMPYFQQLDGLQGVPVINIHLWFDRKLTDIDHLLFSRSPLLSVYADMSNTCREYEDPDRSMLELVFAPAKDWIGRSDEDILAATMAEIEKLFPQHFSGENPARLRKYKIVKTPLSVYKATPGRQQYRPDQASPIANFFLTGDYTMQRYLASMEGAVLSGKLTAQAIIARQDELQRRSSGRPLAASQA

[3] = biological target: 15-cis-phytoene desaturase (Synechococcus elongatus (strain PCC 7942) (Anacystis nidulans R2)) (UniProt P26294); experiment: Competitive inhibition of Synechococcus phytoene desaturase using decyl plastoquinone as cofactor and phytoene as substrate at 0.1 uM after 2 hr by double reciprocal plot analysis

Measured: inhibition

Phytoene desaturase (Gentiana lutea), sequence (Q8W433 as listed by the source): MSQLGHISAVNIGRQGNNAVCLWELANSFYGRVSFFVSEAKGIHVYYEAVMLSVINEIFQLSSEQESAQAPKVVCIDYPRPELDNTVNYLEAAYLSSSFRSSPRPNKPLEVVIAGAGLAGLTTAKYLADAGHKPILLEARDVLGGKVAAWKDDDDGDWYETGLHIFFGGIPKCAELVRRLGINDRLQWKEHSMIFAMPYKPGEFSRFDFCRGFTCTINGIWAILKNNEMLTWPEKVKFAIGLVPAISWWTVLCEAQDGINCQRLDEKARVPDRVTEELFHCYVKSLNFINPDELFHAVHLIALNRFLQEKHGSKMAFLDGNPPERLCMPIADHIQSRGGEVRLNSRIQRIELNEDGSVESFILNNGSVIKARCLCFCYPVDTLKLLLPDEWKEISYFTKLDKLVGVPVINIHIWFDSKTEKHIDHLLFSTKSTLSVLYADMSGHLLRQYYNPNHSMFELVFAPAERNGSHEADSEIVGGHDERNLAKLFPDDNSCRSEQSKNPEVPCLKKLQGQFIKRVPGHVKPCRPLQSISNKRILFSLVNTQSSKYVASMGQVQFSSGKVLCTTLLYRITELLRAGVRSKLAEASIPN

CNc1cnn(-c2cccc(C(F)(F)F)c2)c(=O)c1Cl
active: [1] | [2] | [3]
